Laboratory results reported in publication PMC5784132, “Investigation of 20S-hydroxyvitamin D3 analogs and their 1α-OH derivatives as potent vitamin D receptor agonists with anti-inflammatory activities” (Scientific Reports, 2018).

Tests used:
VDR [1] = molecular target: T1, VDR (Homo sapiens, UniProt P11473); test: VDRE-luciferase reporter assay in HaCaT cells
T1 sequence (P11473 1-427): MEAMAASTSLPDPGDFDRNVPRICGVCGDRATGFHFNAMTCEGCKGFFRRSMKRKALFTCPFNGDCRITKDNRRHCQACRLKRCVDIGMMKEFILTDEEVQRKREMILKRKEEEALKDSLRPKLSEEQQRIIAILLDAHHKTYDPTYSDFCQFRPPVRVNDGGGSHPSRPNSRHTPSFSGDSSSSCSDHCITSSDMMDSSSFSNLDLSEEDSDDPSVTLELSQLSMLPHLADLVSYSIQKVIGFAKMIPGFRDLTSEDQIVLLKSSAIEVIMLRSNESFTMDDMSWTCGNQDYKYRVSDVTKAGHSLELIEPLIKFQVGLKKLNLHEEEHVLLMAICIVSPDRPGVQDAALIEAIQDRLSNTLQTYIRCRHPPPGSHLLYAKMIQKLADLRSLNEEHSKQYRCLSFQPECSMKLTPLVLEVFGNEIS

VDR [2] = molecular target: T1, VDR; test: VDRE-luciferase reporter assay in Caco-2 cells
CYP24A1 gene expression = test: RT-PCR analysis of CYP24A1 expression in HaCaT cells; assay type: cell-based; conditions: 100 nM, 24 h treatment; for fold induction at 0.1 µM: Homo sapiens, read-out: relative mRNA level for CYP24A1 versus vehicle control
Procedure: Figure 7 20S(OH)D3 analogs upregulate the expression of CYP24A1 encoding the vitamin D catabolic enzyme, CYP24A1, with varying efficiencies. […] The mRNA was isolated and the RT-PCR was performed using specific primers for the CYP24A1 gene (see Methods). Data are presented as mean ± SE (n = 3). *p < 0.05, **p < 0.01 and ***p < 0.001 compared with the control.
HaCaT cells were purchased from Thermo Fisher Scientific (Waltham, MA, USA) and were cultured as for the VDRE reporter assay. The RNA from HaCaT keratinocytes treated with secosteroids or from DMSO controls was isolated using the Absolutely RNA Miniprep Kit (Stratagene, La Jolla, CA, USA). Reverse transcription (100 ng RNA/reaction) was performed with the Transcriptor First Strand cDNA Synthesis Kit (Roche Inc., Mannheim, Germany). Real-time PCR was performed using cDNA diluted 10-fold in sterile water and a SYBR Green PCR Master Mix. The primers for both forward and reverse strands for CYP24A1 were designed based on the mouse and rat sequences using Primer Quest software ([…], San Jose, CA, USA). Reactions (in triplicate) were performed at 50 °C for 2 min, 95 °C for 10 min and then 40 cycles of 95 °C for 15 s, 60 °C for 30 s and 72 °C for 30 s. Data were collected and analyzed on a Roche Light Cycler 480. The amount of the final amplified product for each gene was compared and normalized to the amount of β-actin product as a housekeeping gene using a comparative Ct method.

IFNγ production = test: IFNγ inhibition assay in anti-CD3 activated splenocytes; conditions: for activity at 0.1 µM: Mus musculus, Splenocyte, 72 h, read-out: IFNγ (ratio ± SD)
VDR [3] = molecular target: T1, VDR; test: VDRE-luciferase reporter assay in Jurkat cells
rat CYP24A1 = molecular target: T2, rat CYP24A1 (Rattus norvegicus, UniProt Q09128); test: Kinetics of metabolism of analogs in phospholipid vesicles by rat CYP24A1; assay type: in vitro ADME; conditions: for Km: rat CYP24A1 0.14 µM, phospholipid vesicles, 1 min incubation, ± SE from curve fit
T2 construct: made in house; host or cells: E. coli
T2 sequence (Q09128 36-514): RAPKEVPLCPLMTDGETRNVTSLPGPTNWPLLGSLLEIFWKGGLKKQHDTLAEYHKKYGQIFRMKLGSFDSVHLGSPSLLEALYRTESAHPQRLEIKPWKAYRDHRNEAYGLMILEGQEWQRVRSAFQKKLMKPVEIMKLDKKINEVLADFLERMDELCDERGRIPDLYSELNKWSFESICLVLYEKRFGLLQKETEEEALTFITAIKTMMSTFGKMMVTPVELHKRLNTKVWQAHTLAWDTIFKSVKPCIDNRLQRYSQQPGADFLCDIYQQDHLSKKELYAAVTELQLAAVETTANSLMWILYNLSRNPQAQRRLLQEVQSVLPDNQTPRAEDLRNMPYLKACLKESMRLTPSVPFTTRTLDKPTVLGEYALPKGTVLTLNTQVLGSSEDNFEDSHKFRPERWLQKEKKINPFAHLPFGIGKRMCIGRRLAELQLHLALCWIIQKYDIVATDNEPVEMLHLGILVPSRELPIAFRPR
Procedure: An incubation time of 1 min was chosen to obtain the initial rate based on the time courses (Fig. 6) and previous studies[28],[29].
To test metabolism of each analog, they were incorporated into phospholipid vesicles made from dioleoyl phosphatidylcholine and cardiolipin by sonication, as before[24],[28]. […] Samples from incubations with CYP24A1 were extracted with dichloromethane and analysed by HPLC using a 25 cm Grace Alltima C18 column, as before[27],[28]. […] For the more polar 33, the acetonitrile gradient was 30% to 100% acetonitrile for 30 min then 100% acetonitrile for 20 min, at 0.5 mL/min.

mouse CYP27B1 = molecular target: T3, mouse CYP27B1 (Mus musculus, UniProt O35084); test: Metabolism (1α-hydroxylation) of analogs by mouse CYP27B1; assay type: in vitro ADME; conditions: 0.018 mol/mol phospholipid, 0.8 µM mouse CYP27B1, 20 min, 37 °C
T3 construct: made in house; host or cells: E. coli
T3 sequence (O35084 1-507): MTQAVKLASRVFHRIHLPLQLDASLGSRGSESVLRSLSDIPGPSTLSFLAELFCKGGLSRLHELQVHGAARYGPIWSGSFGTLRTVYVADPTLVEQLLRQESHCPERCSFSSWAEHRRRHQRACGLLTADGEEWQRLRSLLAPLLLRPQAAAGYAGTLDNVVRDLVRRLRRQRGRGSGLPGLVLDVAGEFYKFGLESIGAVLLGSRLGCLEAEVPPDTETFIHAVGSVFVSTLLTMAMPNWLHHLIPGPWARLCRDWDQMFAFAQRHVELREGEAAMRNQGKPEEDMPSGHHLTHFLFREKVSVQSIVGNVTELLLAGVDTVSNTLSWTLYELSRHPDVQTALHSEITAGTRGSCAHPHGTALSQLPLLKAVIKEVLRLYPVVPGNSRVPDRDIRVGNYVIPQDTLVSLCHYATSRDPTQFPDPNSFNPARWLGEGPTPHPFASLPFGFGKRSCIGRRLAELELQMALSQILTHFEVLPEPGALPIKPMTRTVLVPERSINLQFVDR
Procedure: In order to make the 1α-OH derivatives of the 20S(OH)D3 analogs enzymatically, and to assess their likely capacity to be 1α-hydroxylated in vivo, the ability of mouse CYP27B1 to hydroxylate these metabolites was examined. 25(OH)D3, the major natural substrate for CYP27B1[2],[30], was included for comparison. The 20S(OH)D3 analogs were incorporated into phospholipid vesicles and incubated with CYP27B1, then the extent of their metabolism was determined by HPLC (Table 2). All analogs tested except 33 were metabolized by CYP27B1. In each case only a single metabolite was produced, assumed to be the 1α-OH derivative based on the known high specificity of the enzyme for the 1α-position[24],[30],[31]. […] Metabolism of 4 was almost twice that of 20S(OH)D3 and metabolism of 23 almost three fold. Thus, the modifications to C24 and/or C25 seen in 13, 4 and 23 enhanced their ability to be metabolized by CYP27B1. […] In contrast, the introduction of an amide linkage into the side chain, as in 33, prevented its hydroxylation by CYP27B1.
Rat CYP24A1, mouse CYP27B1 and adrenodoxin and human adrenodoxin reductase were expressed in E. coli and purified as described before[28],[30],[35]. To test metabolism of each analog, they were incorporated into phospholipid vesicles made from dioleoyl phosphatidylcholine and cardiolipin by sonication, as before[24],[28]. The substrates in vesicles (510 µM phospholipid) were incubated at 37 °C with either CYP24A1 (0.14 µM) or CYP27B1 (0.8 µM) in a reconstituted system containing adrenodoxin (15 µM) and adrenodoxin reductase (0.4 µM). Samples from incubations with CYP24A1 were extracted with dichloromethane and analysed by HPLC using a 25 cm Grace Alltima C18 column, as before[27],[28]. Products (except 33) were separated using an acetonitrile on water gradient (45% to 100% for 20 min then 100% acetonitrile for 40 min at a flow rate of 0.5 mL/min). For the more polar 33, the acetonitrile gradient was 30% to 100% acetonitrile for 30 min then 100% acetonitrile for 20 min, at 0.5 mL/min. Products from incubations with CYP27B1 were similarly extracted with dichloromethane and analyzed by reverse phase HPLC using a 15 cm Grace Smart C18 column and an acetonitrile in water gradient (10 min 45% to 100% acetonitrile then 20 min at 100% acetonitrile, at 0.5 mL/min).

[4] = low dose of 0.1 µg/kg; cited from earlier work

## C=C1/C(=C\C=C2/CCC[C@@]3(C)[C@H]2CC[C@@H]3[C@@](C)(O)CCOC(C)C)C[C@@H](O)C[C@@H]1O [compound 14]
VDR [1]
  EC50: 226 ± 3.5 nM
VDR [2]
  EC50: 188 ± 1.9 nM
CYP24A1 gene expression
  fold induction at 0.1 µM: 2
IFNγ production
  activity at 0.1 µM: 62.8 ± 0.8%
VDR [3]
  EC50: 248 ± 5 nM

## C=C1CC[C@H](O)C/C1=C/C=C1\CCC[C@]2(C)[C@@H](C(C)(O)CC(=O)NC(C)C)CC[C@@H]12 (stereo partly shown) [compound 33]
Rat CYP24A1; rat CYP24A1
  catalytic efficiency, fold lower than for 13: 13 fold
  kcat, fold lower than for 1,25(OH)2D3: approximately 4 fold
Rat CYP24A1
  Km: 15.4 ± 1.7 mmol/mol PL
CYP24A1 gene expression
  fold induction at 0.1 µM: 1.2
IFNγ production
  activity at 0.1 µM: 62.8 ± 1.4%
Mouse CYP27B1
  Product (% total secosteroids): 0 % total secosteroids

## C=C1/C(=C\C=C2/CCC[C@]3(C)[C@@H]([C@H](C)OCCC(C)(C)O)CC[C@@H]23)C[C@@H](O)C[C@@H]1O [22-Oxa, reference compound]
VDR [1]; read-out: VDRE stimulation (EC50 ± SD, nM) HaCaT, HaCaT cells, 24 h, NS: no significance
  EC50: 40.1 ± 1.5 nM
VDR [2]; read-out: VDRE stimulation (EC50 ± SD, nM) Caco-2, Caco-2 cells, 24 h, NS: no significance
  EC50: 42.5 ± 1.6 nM
CYP24A1 gene expression
  relative mRNA level for CYP24A1 versus vehicle control: 77.5 fold
IFNγ production; 100 nM
  decrease of IFNγ production level: 51%
IFNγ production; ratio to control (1.000), 100 nM, mouse splenocytes, anti-CD3, 72 h
  IFNγ (ratio ± SD): 0.487 ± 0.017
VDR [3]; read-out: VDRE stimulation (EC50 ± SD, nM) Jurkat, Jurkat cells, 24 h, NS: no significance
  EC50: 2.9 ± 0.3 nM

## C=C1CC[C@H](O)C/C1=C/C=C1\CCC[C@@]2(C)[C@H]1CC[C@@H]2[C@@](C)(O)CCC(F)(F)C(C)C [compound 23]
Rat CYP24A1; rat CYP24A1
  Km, fold lower than that for 20S(OH)D3: 3–4 fold
Rat CYP24A1
  Km: 11.6 ± 3.1 mmol/mol PL
CYP24A1 gene expression
  fold induction at 0.1 µM: 0.9
IFNγ production
  activity at 0.1 µM: 69.8 ± 3.1%
Mouse CYP27B1
  Product (% total secosteroids): 57.1 % total secosteroids

## C=C1/C(=C\C=C2/CCC[C@@]3(C)[C@H]2CC[C@@H]3[C@@](C)(O)CCC(F)(F)C(C)C)C[C@@H](O)C[C@@H]1O [compound 24]
VDR [1]
  EC50: 254 ± 7.9 nM
VDR [2]
  EC50: 236 ± 4.1 nM
CYP24A1 gene expression
  fold induction at 0.1 µM: 2.3
IFNγ production
  activity at 0.1 µM: 56 ± 1%
VDR [3]
  EC50: 305 ± 4.5 nM

## C=C1CC[C@H](O)C/C1=C/C=C1\CCC[C@@]2(C)[C@H]1CC[C@@H]2[C@@](C)(O)CCC=C(C)C [compound 4]
VDR [1]
  EC50: 460 ± 36.5 nM
VDR [2]
  EC50: 580 ± 19.2 nM
Rat CYP24A1; rat CYP24A1
  kcat, fold lower than for 1,25(OH)2D3: approximately 4 fold
Rat CYP24A1
  Km: 2.0 ± 1.7 mmol/mol PL
CYP24A1 gene expression
  fold induction at 0.1 µM: 32.4
IFNγ production
  activity at 0.1 µM: 83.2 ± 2.3%
Mouse CYP27B1
  Product (% total secosteroids): 40.6 % total secosteroids
VDR [3]
  EC50: 439 ± 25.7 nM

## C=C1/C(=C\C=C2/CCC[C@]3(C)[C@@H]([C@H](C)CCCC(C)(C)O)CC[C@@H]23)C[C@@H](O)C[C@@H]1O [1,25(OH)2D3, 1α,25-dihydroxyvitamin D3, reference compound]
IFNγ production; 100 nM
  decrease of IFNγ production level: 60%
[4]
  calcemic effect: substantial calcemic effect

## C=C1/C(=C\C=C2/CCC[C@@]3(C)[C@H]2CC[C@@H]3[C@@](C)(O)CCC=C(C)C)C[C@@H](O)C[C@@H]1O [compound 5]
VDR [1]
  EC50: 198 ± 8.1 nM
VDR [2]
  EC50: 182 ± 6.1 nM
CYP24A1 gene expression
  fold induction at 0.1 µM: 149
IFNγ production
  activity at 0.1 µM: 38.1 ± 1.7%
VDR [3]
  EC50: 237 ± 5.5 nM

## C=C1CC[C@H](O)C/C1=C/C=C1\CCC[C@]2(C)[C@@H]([C@H](C)CCCC(C)(C)O)CC[C@@H]12 [25(OH)D3, 25-hydroxyvitamin D3, reference compound]
Mouse CYP27B1
  Product (% total secosteroids): 86.0 % total secosteroids
